The record followed here is PMC4198181, “Gold(I) Complexes of 9-Deazahypoxanthine as Selective Antitumor and Anti-Inflammatory Agents” (PLoS ONE, 2014).

Series [1] has as its system human cancer cell lines (MCF7, HOS, A549, G361, HeLa, A2780, A2780R, 22Rv1). The series is described as follows: MTT in vitro cytotoxicity, summary over the panel of human cancer cell lines. In kind it is cell-based. Conditions: on the MCF7 and HOS cell lines. How it is done: In vitro cytotoxic activity was determined by the MTT assay in human breast adenocarcinoma (MCF7; ECACC no. 86012803), human osteosarcoma (HOS; ECACC no. 87070202), lung carcinoma (A549; ECACC no. 86012804), malignant melanoma (G361; ECACC no. 88030401), cervix epitheloid carcinoma (HeLa; ECACC no. 93021013), ovarian carcinoma (A2780; ECACC no. 93112519), cisplatin-resistant ovarian carcinoma (A2780R; ECACC no. 93112517) and prostate carcinoma (22Rv1; ECACC no 105092802) cancer cell lines, purchased from European Collection of Cell Cultures (ECACC). The cells were cultured according to the ECACC instructions and they were maintained at 37°C and 5% CO2 in a humidified incubator. The primary culture of human hepatocytes (HEP220, batch number HEP220819) was obtained from Biopredic International (France). The culture medium was Williams and HAM's F-12 (1∶1) supplemented with penicillin, streptomycin, ascorbic acid, linoleic acid, holo-transferin, ethanolamine, glucagon, insulin, dexamethasone, pyruvate, glucose, glutamine, amphotericin. The medium was enriched for plating with 2% foetal calf serum (v/v). The medium was exchanged for a serum-free medium the day after and the culture was stabilized for additional 24 h. Thereafter, the cells were ready for treatments. The cultures were maintained at 37°C and 5% CO2 in a humidified incubator. The cells were treated with complexes 1–5 (at the concentration levels of 0.01, 0.1, 1.0, 5.0, 25.0, and 50.0 µM), starting compounds e.g. HL1–5, AuCl, and cisplatin (applied up to 50 µM) for 24 h, using multi-well culture plates of 96 wells. […]
The cytotoxicity data were expressed as the percentage of viability, where 100% represented the treatments with vehicle (0.1% DMF or 0.1% DMSO). […] The IC50 values were calculated from viability curves. […] The significance of the differences between the results was assessed by the ANOVA analysis with p<0.05 considered to be significant (QC Expert 3.2, Statistical software, TriloByte Ltd., Pardubice, Czech Republic).

A short description of series [2]: Interactions with L-cysteine and reduced glutathione by ESI+ MS. The class given is physicochemical. Conditions: 20 µM complex, 290 µM cysteine, 6 µM glutathione, methanol/water 1:1. The procedure: The interactions of selected gold(I) complexes 2 and 4, involving the isopropyloxy and benzyloxy substituent on C6 of 9-deazapurine, with the sulfur-containing biomolecules (i.e. L-cysteine and reduced glutathione) were studied by ESI+ mass spectrometry (ESI+ MS). The experiments were carried out using a Thermo Scientific LTQ Fleet Ion-Trap mass spectrometer, in positive ionization mode. The reactions of the representative complexes 2 and 4 were performed in methanol/water mixture (1∶1, v/v) containing the physiological concentrations of L-cysteine and glutathione (at the final concentrations of 290 µM, and 6 µM [63], respectively). The reference system consisted of the solutions of complexes (20 µM) in methanol/water mixture (1∶1, v/v). The flow injection analysis (FIA) method was utilized to introduce the reaction system (5 µL spikes) into the mass spectrometer and pure acetonitrile was used as a mobile phase. The ESI-source was set-up as follows: source voltage (5 kV), the vaporizer temperature (160°C), the capillary temperature (250°C), the sheath gas flow (30 L/min), and auxiliary gas flow rate (10 L/min). The system was calibrated as stated in the manufactured specifications and no further tuning was needed.

`CC(C)Oc1ncnc2cc[n]([Au])c12.c1ccc(P(c2ccccc2)c2ccccc2)cc1` [complex 2, [Au(L2)(PPh3)]]: the “times more efficient than cisplatin” value in series [1] was “at least 20 times”. The “time within which interaction intermediates with cysteine/glutathione were detected (N-ligand exchange)” value in series [2] is given as no more than 1 h.
